Test results published in US5594024A, “Centrally actig substituted phenylazacycloalkanes” (priority 1995, dated 1997).
Read-outs that look alike come from different tables or passages of the source.

Legend:
[1] = molecular target: T1, 5-HT1A (Rattus norvegicus, UniProt P19327); experiment: 5-HT1A radioligand binding ([3H]-8-OH-DPAT); design: species or system rat (male Sprague-Dawley)
T1 construct: the whole brain with the exception of the brainstem and cerebellum was rapidly removed; from tissue
T1 sequence (P19327 1-422): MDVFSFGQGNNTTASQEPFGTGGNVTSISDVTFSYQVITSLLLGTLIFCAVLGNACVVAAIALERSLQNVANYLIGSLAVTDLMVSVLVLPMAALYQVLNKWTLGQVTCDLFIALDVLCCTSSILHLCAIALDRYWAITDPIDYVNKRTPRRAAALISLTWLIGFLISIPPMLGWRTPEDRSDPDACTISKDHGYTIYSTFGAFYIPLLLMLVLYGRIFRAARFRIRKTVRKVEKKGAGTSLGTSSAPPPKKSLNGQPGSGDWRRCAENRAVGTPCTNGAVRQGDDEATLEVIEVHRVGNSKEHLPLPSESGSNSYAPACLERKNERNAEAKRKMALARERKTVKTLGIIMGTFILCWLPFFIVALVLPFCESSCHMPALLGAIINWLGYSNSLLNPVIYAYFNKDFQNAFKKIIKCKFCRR
Experimental: ^b Serotonin 5HT1A ([^3 H]-8OH-DPAT, agonist) rat cortex.
5-HT1A radioligand binding. Male Sprague-Dawley rats (160-225 g) were killed by decapitation and the whole brain with the exception of the brainstem and cerebellum was rapidly removed, weighed and chilled in ice-cold 0.9% NaCl. Each brain was homogenized (Ultra-Turrax, 20 s) in 10 mL ice-cold 50 mM Tris buffer (pH 8.0 at 25° C.) containing 120 mM NaCl, 4 mM CaCl2 and 4 mM MgCl2 and centrifuged at 20,000 g's at 4° C. for 10 minutes. Pellets were resuspended in 10 mL fresh buffer and preincubated for 10 minutes in a 37° C. waterbath and then recentrifuged. Final pellets were homogenized in 100 volumes (w/v) of Tris buffer (as described above) containing 10 μM pargyline. The incubation tubes were kept on ice in triplicates and received 100 μL drug solution in water (or water for total binding) and 1000 μL membrane suspension (corresponds to 10 mg original tissue). The binding experiment was initiated by addition of 100 μL of (3H)-8-OH-DPAT (specific activity 143-158 Ci/mmol) in ascorbic acid (the final incubation concentration was 1 nM (3H)-8-OH-DPAT in 0.1% ascorbic acid). After incubation for 15 minutes at 37° C. the reaction was terminated by separation of the free radioligand from bound by rapid vacuum filtration using a cell harvester equipment (O. M. Teknik, Denmark). The tubes were rinsed with 4 mL and the filters (Whatman GF/F 25 mm) were washed twice with 4 mL ice-cold 0.9% NaCl.
The radioactivity of the filters was measured in a liquid scintillation counter (efficiency 41%) in 5 mL Picofluor®. Specific binding (70-75% of total binding) was defined as the radioactivity displaced by 10 μM 5-HT. IC50 values were calculated by semi-log plot and linear regression analysis.

[2] = system: habituated rats; experiment: Locomotor activity and behavior in habituated rats; assay type: in vivo, rat (male Sprague-Dawley); conditions: 100 μmol/kg sc, habituated rats; for response vs control in vivo at 100 µmol/kg: Rattus norvegicus, 1 h, read-out: Motor Activity
Experimental: (§1) Footnotes Table 3. The rats were habituated to the motility meters 60 min
prior to the activity session.
(§2) Injection volumes were 5 mL/kg.
Locomotor activity was measured in rats which were habituated 60 minutes to the activity meters before drug injection. The activity was measured for the subsequent 60 minutes and expressed as % of controls (means ±SEM, n=4).

[3] = molecular target: T2, D2 receptors (Rattus norvegicus, UniProt P61169); experiment: D2 antagonist binding ([3H]-spiperone), rat striatum
T2 construct: Preparation of rat striatal membranes for (3H)-spiperone; from tissue; host or cells: rat striatum (striatal membranes)
Experimental: D2 antagonist binding. Preparation of rat striatal membranes for (3H)-spiperone (specific activity 21-24 Ci/mmol) binding was carried out in a similar manner as described for D1-binding, Hyttel et al., J. Neural. Transm., 68, 171 (1987).
IC50 values were calculated by semi-log plot and linear regression analysis.

[4] = system: 5-HT receptor; experiment: 5-HTP accumulation (5-HT synthesis rate) in non-pretreated rats after NSD 1015; assay type: in vivo, rat (male Sprague-Dawley)
Experimental: observations are commented to the right. After the session the rats were
accumulation in the NErich cortical regions and 5HTP in the limbic
as §2

[5] = system: DA receptor; experiment: DA metabolism (DOPAC, HVA levels) in habituated rats; assay type: in vivo, rat (male Sprague-Dawley); conditions: for response vs control in vivo at 100 µmol/kg: Rattus norvegicus, 1 h
Experimental: as §1
The rats were immediately killed after the activity session, striata
(§3) and limbic levels of DOPAC and 5HIAA were measured by means of HPLCEC. *p
(§4) In the experiments with habituated rats no NSD was administered and the animals were killed one hour after drug administration. […] The levels were expressed as % of controls (DOPAC and 5-HIAA see Table 3). The in vivo brain microdialysis experiments were performed in conscious rats as described by Waters et al., Eur. J. Pharm., 187, 425-34 (1990).
as §2
After the activity session the rats were killed and the brain levels of HVA and DOPAC were measured (data are expressed as means ±SEM).

[6] = system: DA receptor; experiment: DOPA accumulation (DA synthesis rate) in non-pretreated rats after NSD 1015
Experimental: injected with NSD 1015 (100 mg/kg, i.p.) and then killed 30 min later.
In-vivo determination of rat brain monoamine metabolites and tyrosine and tryptophan hydroxylation (biochemically monitored DA and 5-HT receptor agonist or antagonist activity).
The compounds under evaluation were tested biochemically for central DA and 5-HT receptor (pre- and/or postsynaptic) stimulating and/or blocking activity. The concept of this biochemical screening method is that a DA or 5-HT receptor agonist will stimulate the receptor and through regulatory negative feed-back systems induce a decline in tyrosine or tryptophan hydroxylating activity, respectively, and a subsequent reduction in the synthesis rate of DA and 5-HT in the presynaptic neuron. […] The biochemical experiments and the determinations of Dopa and 5-HTP by means of HPLC with electrochemical detection were performed. The antagonistic effects were seen as increases in the synthesis rate (n=4), as a result of the positive feed-back upregulation of synthesis. The effects on Dopa and 5-HTP accumulation are expressed as % of controls, which were: DOPA limbic system=447±23 ng/g and DOPA striatum=1045±47ng/g, 5-HTP limbic region 241±2 ng/g (Table 2).
Animals used in the biochemical and motor activity experiments were male rats of the Sprague-Dawley strain (ALAB, Sollentuna, Sweden), weighing 200-300 g. The rats were kept 5 per cage with free access to water and food (except for the starved animals for the experiments with per oral administration, who were only allowed water the last 18 hours before testing), at least one week from arrival until used in the experiments.
All substances to be tested were dissolved in saline immediately before use, occasionally with the addition of a few drops of glacial acetic acid and/or moderate heating in order to obtain complete dissolution. Injection volumes were 5 mL/kg.
Analysis of variance (ANOVA) followed by Fischer's test was used for the statistical calculations. P values less than 0.05 were regarded statistically significant.
DOPA accumulation (DA synthesis rate) in non-pretreated rats (Table 2). After the locomotor activity session (see Table 2, above) the rats were injected with the decarboxylase inhibitor NSD 1015 (100 mg/kg, sc) and killed 30 minutes later. The DOPA accumulation in the DA -rich limbic and striatal and the NE-rich cortical (mainly hemispheres) brain areas were expressed as % of saline treated controls.
DOPA accumulation, time course after s.c. and p.o. administration (Table 2). […] NSD 1015 (100 mg/kg, sc) was injected 30 minutes before death. The data are expressed as % of saline treated controls.

[7] = system: non-pretreated rats; experiment: Locomotor activity and gross behavior in non-habituated (non-pretreated) rats; conditions: non-pretreated rats; for Motor Act.: 30 min
[8] = system: 5-HT receptor; experiment: 5-HT metabolism (5-HIAA levels) in habituated rats; assay type: in vivo, rat (male Sprague-Dawley); conditions: 100 μmol/kg sc
Experimental: as §1
SEM. The rats were immediately killed after the activity session, striata
as §3, §4
Injection volumes were 5 mL/kg. […]

[9] = [3H]-8-OH-DPAT, rat cortex, read-out: in vitro binding IC50, 5HT1A
[10] = read-out: in vitro binding IC50, D2 -spip, [3H]-spiperone, rat striatum
[11] = [3H]-spiperone, rat striatum, read-out: in vitro binding IC50, D2 -spip
[12] = 100 μmol/kg sc, habituated rats, read-out: DOPAC limbic
[13] = 100 μmol/kg sc, habituated rats, read-out: DOPAC striatum
[14] = 100 μmol/kg sc, habituated rats

T2 sequence (P61169 whole entry): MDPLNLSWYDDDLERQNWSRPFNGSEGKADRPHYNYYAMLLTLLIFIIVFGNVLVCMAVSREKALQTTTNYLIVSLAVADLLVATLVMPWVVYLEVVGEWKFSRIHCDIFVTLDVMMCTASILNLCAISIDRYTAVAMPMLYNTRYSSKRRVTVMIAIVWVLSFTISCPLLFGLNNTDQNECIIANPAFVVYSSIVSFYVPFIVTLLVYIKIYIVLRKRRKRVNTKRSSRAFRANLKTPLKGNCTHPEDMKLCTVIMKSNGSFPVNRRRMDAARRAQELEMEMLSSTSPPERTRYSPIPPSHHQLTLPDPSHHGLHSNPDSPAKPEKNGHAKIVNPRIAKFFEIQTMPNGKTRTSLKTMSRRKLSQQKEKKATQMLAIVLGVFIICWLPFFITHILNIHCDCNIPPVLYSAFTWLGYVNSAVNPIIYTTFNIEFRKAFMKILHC

With `CCCN1CCCC(c2ccccc2OS(=O)(=O)C(F)(F)F)C1` (racemic) [Racemic-19, 3-((2-(Trifluoromethyl)sulfonyl)oxyphenyl-N-n-propyl)piperidine] the IC50 [1, 9] was 1.4 µM, the Behavioral observations [2] was “No activation” and the response vs control in vivo at 100 µmol/kg ([2]; 60 min) was 101 ± 14%.

In the case of `CCN1CCC[C@@H](c2cccc(C#N)c2)C1` [S-(-)-33, S-(-)-3-(3-Cyanophenyl-N-ethyl)piperidine], the IC50 [3] is reported as 14 µM, the IC50 [1, 9] is reported as 22 µM and the “5-HTP acc Limbic Region” value ([4]; 25 sc) is reported as 83 ± 3 % of saline controls. For the same compound, the “5-HTP acc Limbic Region” value ([4]; 100 sc) was 77 ± 3 % of saline controls, the response vs control in vivo at 100 µmol/kg ([5]; sc, read-out: DOPAC limbic) was 153 ± 15% and the response vs control in vivo at 100 µmol/kg ([5]; sc, read-out: DOPAC striatum) was 167 ± 8%. For the same compound, the Behavioral observations [2] was “Activation”, the response vs control in vivo at 100 µmol/kg ([2]; 60 min) was 431 ± 80% and the “DOPA acc Cortex” value ([6]; 25 sc) was 108 ± 7 % of saline controls. The “DOPA acc Stratium” value ([6]; 25 sc) was 282 ± 11 % of saline controls, the “DOPA acc Cortex” value ([6]; 100 sc) was 137 ± 7 % of saline controls and the “DOPA acc Stratium” value ([6]; 100 sc) was 318 ± 19 % of saline controls. The “Gross Behavioral Observations” value ([7]; 25 sc) was “Weak stimul”, the “Motor Act.” value ([7]; 25 sc) was 157 ± 7 % of saline controls and the “Gross Behavioral Observations” value ([7]; 100 sc) was “No change”. The “Motor Act.” value ([7]; 100 sc) was 113 ± 7 % of saline controls.

Compound `CC(C)N1CCC[C@@H](c2cccc(C#N)c2)C1` [Compound S-35, S-3-(3-Cyanophenyl-N-iso-propyl)piperidine] has an IC50 [3, 10] of 4.3 µM, an IC50 [1, 9] of 16 µM and a response vs control in vivo at 100 µmol/kg ([5]; sc, read-out: DOPAC striatum) of 251 ± 18%. The Behavioral observations [2] was “Activation”.

For `N#Cc1cccc([C@@H]2CCCN(CCc3ccccc3)C2)c1` [Compound S-39, S-3-((3-Cyanophenyl)-N-(2-phenylethyl))piperidine], the IC50 [3, 11] was 0.63 µM, the IC50 [1, 9] was 0.15 µM and the response vs control in vivo at 100 µmol/kg [5, 12] was 169 ± 16%. The response vs control in vivo at 100 µmol/kg [5, 13] was 231 ± 14%, the Behavioral observations [2] was “Activation” and the response vs control in vivo at 100 µmol/kg ([2]; 60 min) was 511 ± 69%.

In the case of `CCCN1CCC(c2cccc(OS(=O)(=O)C(F)(F)F)c2)C1` (racemic) [Racemic-21, 3-((3-(Trifluoromethyl)sulfonyl)oxyphenyl-N-n-propyl)pyrrolidine], the IC50 [3, 11] is reported as 4 µM, the IC50 [1, 9] is reported as 3.2 µM and the Behavioral observations [2] is reported as “No activation”. It also gave a response vs control in vivo at 100 µmol/kg ([2]; 60 min) of 93 ± 18%.

`C=CCN1CCC[C@@H](c2cccc(C#N)c2)C1` [Compound S-37, S-3-(3-Cyanophenyl-N-allyl)piperidine] gave an IC50 [3, 10] of 8.2 µM, an IC50 [1, 9] of 12 µM and a response vs control in vivo at 100 µmol/kg ([5]; sc, read-out: DOPAC limbic) of 205 ± 17%.

`N#Cc1cccc([C@@H]2CCCNC2)c1` [Compound S-31, S-3-(3-Cyanophenyl)piperidine] showed an IC50 [3, 11] of 16 µM, an IC50 [1] of 10 µM and a DOPAC limbic [5, 14] of 153 ± 1%. The DOPAC striatum [5, 14] was 167 ± 8 % of saline treated controls, the Behavioral observations [2] was “Activation” and the “Motor Activity” value ([2]; 60 min) was 431 ± 80 % of saline treated controls.

`CCCN1CCC[C@@H](c2cccc(OS(C)(=O)=O)c2)C1` [Compound S-22, S-3-((3-Methylsulfonyl)oxyphenyl-N-n-propyl)piperidine] showed an IC50 [3, 11] of 25 µM, an IC50 [1, 9] of 1.7 µM and a response vs control in vivo at 100 µmol/kg [5, 12] of 209 ± 11%. The response vs control in vivo at 100 µmol/kg [5, 13] was 276 ± 12%, the 5-HIAA limbic [8] was 118 ± 11 % of saline treated controls and the Behavioral observations [2] was “Activation”. For the same compound, the response vs control in vivo at 100 µmol/kg ([2]; 60 min) was 550 ± 50%.

For `CN1CCC[C@@H](c2cccc(C#N)c2)C1` [S-(+)-32, S-(+)-3-(3-Cyanophenyl-N-methyl)piperidine], the IC50 [3, 11] was 50 µM, the IC50 [1, 9] was 14 µM and the “5-HTP acc Limbic Region” value ([4]; 25 sc) was 98 ± 7 % of saline controls. For the same compound, the “5-HTP acc Limbic Region” value ([4]; 100 sc) was 78 ± 2 % of saline controls, the response vs control in vivo at 100 µmol/kg ([5]; sc, read-out: DOPAC limbic) was 110 ± 6% and the response vs control in vivo at 100 µmol/kg ([5]; sc, read-out: DOPAC striatum) was 120 ± 5%. For the same compound, the “DOPA acc Cortex” value ([6]; 25 sc) was 91 ± 5 % of saline controls, the “DOPA acc Stratium” value ([6]; 25 sc) was 132 ± 9 % of saline controls and the “DOPA acc Cortex” value ([6]; 100 sc) was 109 ± 12 % of saline controls. The “DOPA acc Stratium” value ([6]; 100 sc) was 215 ± 6 % of saline controls, the “Gross Behavioral Observations” value ([7]; 25 sc) was “No change” and the “Motor Act.” value ([7]; 25 sc) was 128 ± 27 % of saline controls. For the same compound, the “Motor Act.” value ([7]; 100 sc) was 79 ± 2 % of saline controls.
